Tests used:
[1] = molecular target: T1, Muscarinic acetylcholine receptor M2 (Homo sapiens, UniProt P08172); type: functional, cell-based
T1 sequence (P08172 whole entry): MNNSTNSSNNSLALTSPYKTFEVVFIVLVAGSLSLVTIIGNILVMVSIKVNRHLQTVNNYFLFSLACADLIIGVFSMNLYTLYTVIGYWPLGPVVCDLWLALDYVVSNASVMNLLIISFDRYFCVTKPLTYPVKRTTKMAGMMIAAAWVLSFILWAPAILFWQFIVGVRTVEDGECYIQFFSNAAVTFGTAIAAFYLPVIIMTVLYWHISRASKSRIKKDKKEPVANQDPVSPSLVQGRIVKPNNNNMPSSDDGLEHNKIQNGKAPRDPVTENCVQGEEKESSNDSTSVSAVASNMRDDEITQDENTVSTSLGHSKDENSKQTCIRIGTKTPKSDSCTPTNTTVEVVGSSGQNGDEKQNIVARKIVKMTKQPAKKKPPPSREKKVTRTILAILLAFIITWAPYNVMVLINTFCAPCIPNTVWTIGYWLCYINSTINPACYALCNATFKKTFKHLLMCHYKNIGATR

[2] = molecular target: Beta-1 adrenergic receptor (Homo sapiens, UniProt P08588); type: functional
[3] = molecular target: Delta-type opioid receptor (Homo sapiens, UniProt P41143)
[4] = molecular target: T1, Muscarinic acetylcholine receptor M2; type: functional, cell-based; remark: listed apart in the source
[5] = molecular target: 5-hydroxytryptamine receptor 2A (Homo sapiens, UniProt P28223); type: functional, cell-based
[6] = molecular target: T2, Equilibrative nucleoside transporter 1 (Homo sapiens, UniProt Q99808)
T2 sequence (Q99808 whole entry): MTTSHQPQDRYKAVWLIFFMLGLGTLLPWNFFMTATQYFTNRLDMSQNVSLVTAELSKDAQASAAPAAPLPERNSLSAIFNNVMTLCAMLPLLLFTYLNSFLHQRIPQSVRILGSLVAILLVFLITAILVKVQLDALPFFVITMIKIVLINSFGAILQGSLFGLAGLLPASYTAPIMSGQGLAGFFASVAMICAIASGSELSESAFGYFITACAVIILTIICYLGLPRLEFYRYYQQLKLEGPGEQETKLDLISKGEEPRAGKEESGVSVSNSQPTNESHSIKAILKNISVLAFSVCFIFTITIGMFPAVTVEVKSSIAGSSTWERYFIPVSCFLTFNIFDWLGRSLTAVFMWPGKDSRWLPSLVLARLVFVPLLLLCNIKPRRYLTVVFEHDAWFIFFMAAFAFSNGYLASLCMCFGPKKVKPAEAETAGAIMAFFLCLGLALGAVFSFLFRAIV

[7] = molecular target: T3, Type-1 angiotensin II receptor (Homo sapiens, UniProt P30556)
T3 sequence (P30556 whole entry): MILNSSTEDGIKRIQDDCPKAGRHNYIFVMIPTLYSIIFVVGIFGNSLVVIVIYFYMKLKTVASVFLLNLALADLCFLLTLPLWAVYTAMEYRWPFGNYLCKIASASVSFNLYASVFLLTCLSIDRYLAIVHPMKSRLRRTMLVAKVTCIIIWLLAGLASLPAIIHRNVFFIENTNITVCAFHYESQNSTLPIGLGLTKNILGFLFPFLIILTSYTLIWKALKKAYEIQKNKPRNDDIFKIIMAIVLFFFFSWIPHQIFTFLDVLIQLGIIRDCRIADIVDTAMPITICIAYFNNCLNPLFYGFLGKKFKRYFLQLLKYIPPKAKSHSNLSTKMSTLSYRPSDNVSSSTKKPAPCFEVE

Progesterone receptor = molecular target: T4, Progesterone receptor (Homo sapiens, UniProt P06401); type: functional
T4 sequence (P06401 whole entry): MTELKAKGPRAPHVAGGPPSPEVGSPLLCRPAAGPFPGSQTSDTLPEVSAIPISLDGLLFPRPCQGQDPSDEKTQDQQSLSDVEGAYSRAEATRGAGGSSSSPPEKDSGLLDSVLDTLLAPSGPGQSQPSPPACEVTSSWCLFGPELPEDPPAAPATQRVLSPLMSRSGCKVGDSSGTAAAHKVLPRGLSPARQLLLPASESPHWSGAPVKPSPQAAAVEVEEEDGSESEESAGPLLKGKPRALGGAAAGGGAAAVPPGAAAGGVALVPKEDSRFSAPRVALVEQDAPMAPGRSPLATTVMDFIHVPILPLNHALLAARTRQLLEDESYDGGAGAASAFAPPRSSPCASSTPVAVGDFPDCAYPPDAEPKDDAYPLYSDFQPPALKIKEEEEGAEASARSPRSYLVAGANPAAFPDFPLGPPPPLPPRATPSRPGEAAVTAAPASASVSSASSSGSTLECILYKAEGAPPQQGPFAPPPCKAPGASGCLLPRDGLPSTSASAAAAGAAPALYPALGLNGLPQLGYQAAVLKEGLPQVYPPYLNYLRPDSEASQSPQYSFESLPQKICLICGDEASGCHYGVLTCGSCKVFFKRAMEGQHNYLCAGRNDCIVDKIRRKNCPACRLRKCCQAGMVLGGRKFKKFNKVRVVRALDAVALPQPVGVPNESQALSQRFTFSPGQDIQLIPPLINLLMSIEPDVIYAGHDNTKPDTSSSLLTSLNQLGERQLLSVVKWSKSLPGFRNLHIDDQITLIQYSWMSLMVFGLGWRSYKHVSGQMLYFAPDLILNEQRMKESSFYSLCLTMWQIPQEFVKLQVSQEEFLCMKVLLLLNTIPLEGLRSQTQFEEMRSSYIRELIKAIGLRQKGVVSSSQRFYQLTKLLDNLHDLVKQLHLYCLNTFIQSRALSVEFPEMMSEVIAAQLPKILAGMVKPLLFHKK
Note: assay procedure not described here.

5-hydroxytryptamine receptor 2A, sequence (P28223 whole entry): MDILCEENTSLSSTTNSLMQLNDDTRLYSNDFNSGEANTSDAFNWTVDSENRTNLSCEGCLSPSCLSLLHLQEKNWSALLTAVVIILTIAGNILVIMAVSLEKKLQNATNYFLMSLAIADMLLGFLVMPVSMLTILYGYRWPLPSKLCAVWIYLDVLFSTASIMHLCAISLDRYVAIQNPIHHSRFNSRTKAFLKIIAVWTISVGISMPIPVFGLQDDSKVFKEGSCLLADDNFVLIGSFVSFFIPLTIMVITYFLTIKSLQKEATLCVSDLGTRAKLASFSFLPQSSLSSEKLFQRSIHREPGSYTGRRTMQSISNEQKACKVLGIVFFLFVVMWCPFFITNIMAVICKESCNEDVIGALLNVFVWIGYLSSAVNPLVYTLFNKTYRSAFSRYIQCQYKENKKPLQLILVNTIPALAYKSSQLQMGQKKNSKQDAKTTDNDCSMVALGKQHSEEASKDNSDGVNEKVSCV
Delta-type opioid receptor, sequence (P41143 whole entry): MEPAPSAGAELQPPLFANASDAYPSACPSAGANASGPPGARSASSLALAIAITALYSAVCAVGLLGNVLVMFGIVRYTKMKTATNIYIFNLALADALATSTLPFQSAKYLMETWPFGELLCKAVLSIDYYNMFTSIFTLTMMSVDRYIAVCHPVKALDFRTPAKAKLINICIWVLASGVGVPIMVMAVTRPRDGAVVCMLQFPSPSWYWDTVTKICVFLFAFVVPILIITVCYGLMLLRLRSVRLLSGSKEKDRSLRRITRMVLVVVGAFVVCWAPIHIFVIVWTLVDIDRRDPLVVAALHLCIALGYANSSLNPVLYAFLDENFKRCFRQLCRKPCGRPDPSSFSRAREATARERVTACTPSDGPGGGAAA
Beta-1 adrenergic receptor, sequence (P08588 whole entry): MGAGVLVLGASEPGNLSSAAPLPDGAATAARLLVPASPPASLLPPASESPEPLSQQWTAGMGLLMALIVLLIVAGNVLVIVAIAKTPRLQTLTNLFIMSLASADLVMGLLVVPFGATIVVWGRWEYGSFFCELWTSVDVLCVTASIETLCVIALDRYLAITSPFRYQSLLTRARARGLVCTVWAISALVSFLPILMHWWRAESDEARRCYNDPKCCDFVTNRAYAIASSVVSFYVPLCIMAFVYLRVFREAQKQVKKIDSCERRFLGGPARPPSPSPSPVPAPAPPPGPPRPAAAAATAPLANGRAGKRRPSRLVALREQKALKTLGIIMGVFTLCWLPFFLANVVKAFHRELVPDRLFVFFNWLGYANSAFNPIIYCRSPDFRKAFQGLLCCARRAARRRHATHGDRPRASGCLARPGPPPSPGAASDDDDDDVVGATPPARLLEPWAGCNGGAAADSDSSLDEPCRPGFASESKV

Structure (SMILES) | AC50 [1] [µM] | AC50 [2] [µM] | AC50 [3] [µM] | AC50 [4] [µM] | AC50 [5] [µM] | AC50 [6] [µM] | AC50 [7] [µM] | AC50 (Progesterone receptor) [µM]
Cc1ccc(S(=O)(=O)NC(=O)N[C@H]2[C@H]3CC[C@@](C)([C@H]2O)C3(C)C)cc1 [GLIBORNURIDE] | > 30 | > 30 | > 30 | > 30 | > 30 | > 30 | > 30 | > 30
O=C(C[S+]([O-])Cc1ccco1)NC/C=C\COc1cc(CN2CCCCC2)ccn1 (stereo not given) [LAFUTIDINE] | > 10 | > 10 | > 30 | > 10 | > 30 | > 10 | > 10 | > 10
CCC(=O)O[C@H](CC(=O)O)C[N+](C)(C)C [LEVOCARNITINE PROPIONATE] | > 30 | > 30 | > 30 | > 30 | > 30 | > 30 | > 30 | > 30
O=C(O)c1nn(Cc2ccc(Cl)cc2Cl)c2ccccc12 [LONIDAMINE] | > 30 | > 30 | > 30 | > 30 | > 30 | > 30 | > 30 | > 30
CCC1(CC)C(=O)NC(=O)N(C)C1=O [METHARBITAL] | > 10 | > 10 | > 30 | > 10 | > 10 | > 10 | > 10 | > 10
COC(=O)c1ccc2c(c1)NC(=O)/C2=C(\Nc1ccc(N(C)C(=O)CN2CCN(C)CC2)cc1)c1ccccc1 [NINTEDANIB] | > 30 | > 30 | > 30 | > 30 | > 30 | > 30 | > 30 | > 30
CCN(CC)Cc1nccn1-c1ccc([N+](=O)[O-])cc1C(=O)c1ccccc1Cl [NIZOFENONE] | > 30 | > 30 | > 30 | > 30 | > 30 | > 30 | > 30 | > 30
CS(=O)(=O)NC(=O)CCC/C=C\C[C@H]1C(=O)C[C@@H](O)[C@@H]1/C=C/[C@@H](O)COc1ccccc1 [SULPROSTONE] | > 30 | > 30 | > 30 | > 30 | > 30 | > 30 | > 30 | > 30
CCCCOC(=O)C(=O)Nc1cccc(-c2nnn[nH]2)c1 [TAZANOLAST] | > 30 | > 30 | > 30 | > 30 | > 30 | > 30 | > 30 | > 30
CC(C(=O)O)c1ccc(C(=O)c2ccccc2)s1 (stereo not given) [TIAPROFENIC ACID] | > 10 | > 10 | > 30 | > 10 | > 30 | > 10 | > 10 | > 10
CCCCC[C@H](O)CC[C@@H]1[C@H]2Cc3cccc(OCC(=O)O)c3C[C@H]2C[C@H]1O [TREPROSTINIL] | > 30 | > 30 | > 30 | > 30 | > 30 | > 30 | > 30 | > 30
CC1=C(/C=C/C(C)=C/C=C/C(C)=C/C(=O)Oc2c(C)c(C)c3c(c2C)CCC(C)(CCCC(C)CCCC(C)CCCC(C)C)O3)C(C)(C)CCC1 (stereo not given) [TRETINOIN TOCOFERIL] | > 30 | > 30 | > 30 | > 30 | > 30 | > 30 | > 30 | 19
CN(C)CCOCC(=O)NC12CC3CC(CC(C3)C1)C2 [TROMANTADINE] | > 30 | > 30 | > 30 | > 30 | > 30 | > 30 | > 30 | > 30
CCCCCCCC(=O)CC[C@@H]1[C@@H](C/C=C\CCCC(=O)O)[C@@H](O)C[C@H]1O [UNOPROSTONE] | > 30 | > 30 | > 30 | > 30 | > 30 | > 30 | > 30 | > 30
OCC(CO)N[C@H]1C[C@](O)(CO)[C@@H](O)[C@H](O)[C@H]1O [VOGLIBOSE] | > 30 | > 30 | > 30 | > 30 | > 30 | > 30 | > 30 | > 30
